This assay concerns HCV replicon HuH5-2. As to the kind of experiment: Cellular HCV-RNA replication assay (replicon system), luciferase reporter, with Alamar Blue cytotoxicity test. It is filed as cell-based, hepatitis C virus. Conditions: for SI (selectivity index) = CC50/EC50: CC50 from Alamar Blue fluorescence, EC50 from luciferase activity, HuH5-2 cells; for EC50: Hepatitis C virus, Huh-5-2, HuH5-2 replicon cells, substance concentration with which the luciferase activity decreases by 50% compared with the untreated replicon control, incubation 4-5 days. The source says: 1. Measurement of the Activity of Substances in a Cellular HCV-RNA Replication Assay (“Replicon System”)
Hepatitis C cannot as of yet be replicated reproducibly with high titres in cell culture. The activity of substances is therefore detected in the so-called replicon system. This comprises parts of the HCV genome or complete HCV genomes which are transferred into cell lines (here HuH-7 cells) of human origin. It is possible by insertion of a selection marker to obtain stable cell lines which, under selection pressure, replicate genomic or subgenomic RNA of HCV [Lohmann et al., Science 285, 110-113 (1999); Blight et al., Science 290, 1972-1974 (2000)]. The HuH5-2 cells used here harbour a selectable, luciferase-carrying, cell culture-adapted replicon as described in EP 1 043 399. The cells are cultured in Dulbecco's modified […] medium (DMEM) with 10% fetal calf serum (FCS), 1% Pen/Strep, 1% NEAA, 1% L-glutamine and 250 μg/ml Geneticin (G418). To carry out the assays described below, the cells are initially trypsinized and resuspended with the DMEM medium described above without G418. Depending on the assay, the cells are seeded in 24-well or 384-well plates. Depending on the reading or assay method used, transparent or white assay plates coated for cell culture are used.
The test compounds are made up as 50 mM stock solution in DMSO. To determine the EC50 values, the substances subsequently undergo a serial two-fold dilution in DMEM. The dilutions are transferred as doublets to the cell culture plates. The trypsinized cells which have been resuspended in medium are then added. The final concentration of the test substances in the cell culture wells is for example 300 μM to 0.0001 μM. Interferon-alpha serves as reference substance in concentrations of 60 IU/ml to 1 IU/ml. Antimycin-alpha serves as cytotoxicity control in concentrations of 2 μM to 0.03,M. Untreated cells serve as reference. The plates are then incubated at 37° C. under 5% CO2 for 4-5 days. The various measurements and the quantification of the HCV replicon RNA then take place.
Alamar Blue is a water-soluble redox indicator which is reduced as a function of the metabolic activity of the cells to be investigated. The Alamar Blue test is used as quantitative cytotoxicity assay. For this purpose, the cells are seeded with the appropriate test substances (see above) in white 384-well cell culture plates and incubated correspondingly at 37° C. under 5% CO2 for 4 days. 4 to 6 hours before the actual measurement, 5 μl of Alamar Blue are added per well. The fluorescence is then measured at an […]. If this test is to be followed by chemiluminescence measurement (see below) on the same plate, the dye solution is aspirated off from the cells and the latter are subsequently washed once with PBS. The PBS is likewise aspirated off again from the cells.
A reporter gene is introduced into the HCV replicon HuH5-2, in this case the gene for the luciferase enzyme of Photinus pyralis. After the addition of the luciferase reagent (20 mM Tris/HCl, 20 mM tricine, 2.67 mM MgSO4, 0.1 mM EDTA, 33.3 mM DTT, 0.27 mM coenzyme A, 0.47 mM luciferin, 0.53 mM ATP, pH 7.8) to the cells, the chemiluminescence is measured in a luminometer. Normally, the photons are measured in a period of from 10 sec to 60 sec.
The following data can be determined from the assay plates: • CC50=substance concentration in μM with which the Alamar Blue fluorescence decreases by 50% compared with the untreated control; • EC50=substance concentration with which the luciferase activity decreases by 50% compared with the untreated replicon control; • SI (selectivity index)=CC50/EC50. […]
A general note: In antiviral work, replicon cells carry a viral genome segment that copies itself.

Bounds are passed on as bounds.

As usually defined, the EC50 is the concentration that produces a half-maximal response.

Consider `CC(C)N(c1sc(C2CCN(S(C)(=O)=O)CC2)cc1C(=O)O)C(=O)[C@H]1CC[C@H](C)CC1` [Example 35, 2-{Isopropyl[(trans-4-methylcyclohexyl)carbonyl]amino}-5-[1-(methylsulfonyl)piperidin-4-yl]thiophene-3-carboxylic acid], for which the “SI (selectivity index) = CC50/EC50” value is more than 18 and the EC50 amounted to 2.8 µM.
In the case of `CC(C)N(c1sc(-c2cccnc2)cc1C(=O)O)C(=O)[C@H]1CC[C@H](C)CC1` [Example 30], the “SI (selectivity index) = CC50/EC50” value was more than 38 and the half-maximal effective concentration (EC50) was 1.3 µM.
As to `CC(C)N(c1sc(-c2ccccc2)cc1C(=O)O)C(=O)[C@H]1CC[C@H](C)CC1` [Example 1, 2-[Isopropyl-(trans-4-methylcyclohexanecarbonyl)amino]-5-phenylthiophene-3-carboxylic acid], the “SI (selectivity index) = CC50/EC50” value is more than 50 and the half-maximal effective concentration (EC50) is 1 µM.
With `C[C@H]1CC[C@H](C(=O)N(c2sc(-c3ccccc3)cc2C(=O)O)C2CCOCC2)CC1` [Example 42, 2-[[(trans-4-Methylcyclohexyl)carbonyl](tetrahydro-2H-pyran-4-yl)amino]-5-phenylthiophene-3-carboxylic acid], the “SI (selectivity index) = CC50/EC50” value is more than 100 and the concentration for a half-maximal effect (EC50) worked out at 0.5 µM.
Turning to `COCC(C)N(C(=O)C1CCC(C)CC1)c1sc(-c2ccccc2)cc1C(=O)O` (centres unmarked) [Example 49], the “SI (selectivity index) = CC50/EC50” value is reported as more than 63 and it took 0.8 µM to reach a half-maximal effect (EC50).
In the case of `CC(C)N(c1sc(-c2ccc(F)cc2)cc1C(=O)O)C(=O)[C@H]1CC[C@H](C)CC1` [Example 19, 5-(4-Fluorophenyl)-2-{isopropyl[(trans-4-methylcyclohexyl)carbonyl]amino}thiophene-3-carboxylic acid], the “SI (selectivity index) = CC50/EC50” value is listed as more than 100 and the EC50 was 0.4 µM.
As for `CC(C)N(C(=O)[C@@H]1CC[C@@H](C)C[C@@H]1O)c1sc(-c2ccccc2)cc1C(=O)O` (single isomer, unassigned) [Example 54], the “SI (selectivity index) = CC50/EC50” value is recorded as more than 277 and a half-maximal effect (EC50) was put at 0.18 µM.

For the origin of these results see US20070099929A1, “Substituted thiophenes” (AiCuris GmbH & Co. KG, priority 2003, published 2007).
